The text below walks through data of patent US20120141983A1, “Quantitative Aggregation Sensors” (priority 2010, published 2012).

One assay addresses T1, synthetic Aβ42 (Homo sapiens, UniProt P05067).
T1 construct: a fragment comprising residues 672-713 of Aβ (“Aβ42”); purchased Bachem
Put plainly: Inhibition of in vitro aggregation of synthetic Aβ42 by small molecules (ThT fluorescence). The format is biochemical. Conditions: 1 μM compound, 25 μM Aβ42, 1 day at 30° C. As to the method: (§1) Aβ42, Aβ40, Aβ42F20E and Aβ42E22G peptides (Bachem, Torrance, USA) were disaggregated using Hexafluoro-2-propanol (HFIP, Sigma-Aldrich) following the protocol described elsewhere (C. Goldsbury, et al., 2005, J Mol Biol 352, 282), and aliquoted into low protein binding tubes (Eppendorf).
Effect of small molecule inhibitors of Aβ42 aggregation. 2 mM Aβ42 stock solutions in DMSO) were sonicated for 5 minutes, and diluted to final 25 μM concentration in PBS (Gibco). Small molecules were added to final 1 μM concentration, the final DMSO concentration in all samples and control was kept equal. Samples were incubated for 1 day at 30° C., and tested for Aβ42 aggregation using Thioflaving T (Tht, Sigma-Aldrich) binding monitored by fluorescence (excitation 450 nm/emission 485 nm). Tht was prepared at 5 μM in 20 mM Glycine pH=8 buffer. 10 μl of sample were plated in triplicates in clear bottom non-binding black plates (Corning), and 100 μl of Tht were added. After 5 minutes of incubation at room temperatures, fluorescence was read. Data were corrected by Tht alone fluorescence, and normalized by the Tht intensity of the control solution, Aβ42+DMSO. Ratios and standard deviations were calculated as described in the Data Analysis section.

The next assay deals with sLucAβ. Put plainly: Effect of small molecule aggregation inhibitors on secreted reporter in inducible cell lines. It is filed as cell-based. Conditions: 1 μM compound, 24 hours. As to the method: (§2) 293T FlipInTrex (Invitrogen) cells. 293T FlipInTrex cells were grown as described above, using Tet Approved Fetal Bovine Serum (Clontech) and supplementing the medium with Zeocin 100 μg/mL (Invitrogen) and Blasticidin 15 μg/ml (InVivoGen, San Diego, USA). Zeocin selects for the lacZeo inserted into FRT sites in the genome, and Blasticidin selects for Tet repressor expression. For the generation of isogenic stable doxycycline inducible cell lines, cells were co-transfected overnight using Lipofectamine 2000 with the pcDNA5/FRT/TO vectors containing the fusion proteins-IRES-(NLS)3EGFP cassettes, and the pOGG-Flp recombinase plasmid (Invitrogen) at a ratio pcDNA/pOGG of 1:9. On day 2, cells were replated at −25% confluency, and selection for recombined clones was started by supplementing the medium with 75 μg/ml Hygromycin (InvivoGen) and Zeocin 100 μg/mL. Medium was exchanged every 2-3 days until colonies appeared. Cells were adapted to cell culture media containing 5% Tet approved Fetal Bovine Serum (Clontech), and 5% Serum Replacement 3 (Sigma). […] Expression of the chimeric reporter proteins was induced by addition of 0.75 μg/mL Doxycycline (Sigma-Aldrich) to cell culture medium, and tested for luciferase activity and western-blot (see below).
Effect of Small Molecule Inhibitors of Aβ42 aggregation in inducible cell lines. Congo Red, Rosmarinic acid, Quercetin, scyllo-inositol, and (−)-Epigallocatechin gallate (EGCG) were purchased from Sigma-Aldrich, and dissolved in DMSO. Cells were plated in 96-well plates and allowed to attach overnight. Cell medium without antibiotics was prepared containing 2× of the final compound concentration (1 μM) and 2× of final doxycycline concentration (0.75 μgr/ml) and diluted to 1× with media in the well. Control cells were treated with medium containing the same volume of DMSO. 8 wells were treated per condition. After 24 hours, 4 wells were harvested for luciferase assays, and 4 wells were used for cell survival assays.
sLuc Metridia activity. sLuc Metridia activity was measured using the same plates and instrument described above. Metridia reagent was prepared as described in (G. A. Stepanyuk et al., 2008, Protein Expr Purif 61, 142). Coelenterazine, native (Biosynth AG, Staad, Switzerland) was brought up at 1.43 mM in Methanol acidified with 1N HCl and diluted to 7.2 μM in 20 mM Tris-HCl 0.3M NaCl pH7.5 (Sigma-Aldrich). 20 μl of cell medium were transferred to white 96-well plates, 50 μl of reagent was injected, and every well was read for 5 s followed by a 3s delay. sLuciferase activity is measured in Relative Luminiscence Units (RLU).
(§3) Cell survival was measured using Cell titer Blue kit (Promega). […] After 1 hour incubation at 37° C., fluorescence was recorded in a Spectramax M5 plate reader, using excitation at 560 nm and emission at 590 nm in Relative Fluorescence Units (RFU).
(§4) Effect of small molecule inhibitors of Aβ42 in the inducible cell lines. The ratio luciferase activity/cell survival (Rsmall molecule) was calculated as shown in eq. […] Four technical replicates were measured per molecule for each test. Standard deviation was calculated using eq. […]
(§5) Comparing the Fold inhibition ratio of a given molecule in the Aβ42 and SH3 sensors allows the identification of molecules that change the ratios by mechanisms non-specific to aggregation such as toxicity or interference with luciferase activity. […] Standard errors were calculated using Error propagation theory. […]

Another assay has as its system cLucAβ. Put plainly: Effect of small molecule aggregation inhibitors on cytoplasmic reporter in inducible cell lines. It is filed as cell-based. Conditions: 1 μM compound, 24 hours. As to the method:
as §2
Effect of Small Molecule Inhibitors of Aβ42 aggregation in inducible cell lines. Congo Red, Rosmarinic acid, Quercetin, scyllo-inositol, and (−)-Epigallocatechin gallate (EGCG) were purchased from Sigma-Aldrich, and dissolved in DMSO. Cells were plated in 96-well plates and allowed to attach overnight. […]
cLuciferase Firefly activity. […] 20 μl of cellular lysate were transferred to white 96-well plates (Corning), 100 μl of luciferase reagent were injected, and every well was read for 5 s followed by 3 s delay to minimize cross-talk between wells using a Modulus Microplate Multimode Reader (Turner Biosystems Inc., Sunnyvale, Calif., USA). cLuciferase activity is measured in Relative Luminiscence Units (RLU).
as §3, §4, §5

In assay [1] the test system is cytoplasmic and secreted reporters. Put plainly: Thapsigargin effect on activity of cytoplasmic and secreted reporters in inducible 293FlpInTrex cell lines. It is filed as cell-based. Conditions: 24 hours, different concentrations. As to the method: FIG. 16: Changes in proteostasis pathways 96 hours postinduction (A) relative mRNA levels of cells expressing cLucAβ or sLucAβ versus cLucSH3 or sLucSH3 measured by qPCR; (B) Protein expression analysed by Western blot. (C) Activity of cytoplasmic and secreted reporters normalized by cell survival in the presence of different concentrations of Thapsigargin compared to solvent alone. Data are means±s.d. Experiments were carried out using doxycyline inducible 293FlpInTrex cell lines expressing the aggregation sensors.
293T FlipInTrex (Invitrogen) cells. 293T FlipInTrex cells were grown as described above, using Tet Approved Fetal Bovine Serum (Clontech) and supplementing the medium with Zeocin 100 μg/mL (Invitrogen) and Blasticidin 15 μg/ml (InVivoGen, San Diego, USA). Zeocin selects for the lacZeo inserted into FRT sites in the genome, and Blasticidin selects for Tet repressor expression. […]
as §3

Assay [2] can be described thus: In vitro Aβ42 aggregation kinetics by Thioflavin T fluorescence. It is filed as physicochemical. To be noted: 25 μM in PBS, 30° C., ThT. As to the method:
as §1
In vitro Aβ42 kinetic experiment. 25 μM Aβ42 in PBS was incubated at 30° C. Aliquots were withdrawn at different time points, and Tht binding was measured in triplicates.

T1 sequence (P05067 672-713): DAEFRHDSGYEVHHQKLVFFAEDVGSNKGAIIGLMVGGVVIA

In the case of `Nc1c(/N=N/c2ccc(-c3ccc(/N=N/c4cc(S(=O)(=O)O)c5ccccc5c4N)cc3)cc2)cc(S(=O)(=O)O)c2ccccc12` [Congo Red], at synthetic Aβ42, the “inhibition of in vitro aggregation of synthetic Aβ42 by ThT fluorescence” value is recorded as “potently inhibited”. Moreover, the “effect on sLucAβ activity compared to solvent alone” value with sLucAβ is “did not increase the activity”.

As for `O=c1c(O)c(-c2ccc(O)c(O)c2)oc2cc(O)cc(O)c12` [Quercetin], in the assay with cLucAβ, the “effect on cLucAβ activity compared to solvent alone” value was “no effect”. In addition, in the assay with sLucAβ, the “effect on sLucAβ activity compared to solvent alone” value is given as “significantly increased activity”. The matching figures for `O=C(/C=C/c1ccc(O)c(O)c1)O[C@H](Cc1ccc(O)c(O)c1)C(=O)O` [Rosmarinic acid]: “no effect” and “significantly increased activity”. For `O[C@H]1[C@H](O)[C@@H](O)[C@H](O)[C@@H](O)[C@@H]1O` [Scilloinositol, scyllo-inositol], in the assay with cLucAβ, the “effect on cLucAβ activity compared to solvent alone” value was “no effect”. Besides, the “effect on sLucAβ activity compared to solvent alone” value with sLucAβ is reported as “significantly increased activity”. With `C/C=C(/C)C(=O)O[C@H]1C(C)=C2[C@H]([C@@H]1OC(=O)CCCCCCC)[C@@](C)(OC(C)=O)C[C@H](OC(=O)CCC)[C@@]1(O)[C@H]2OC(=O)[C@@]1(C)O` [TG, Thapsigargin], the “effect on aggregation sensor activity normalized by cell survival” value in assay [1] is recorded as “increase of only sAβ activity in a TG dose-dependent manner”. As for (−)-Epigallocatechin gallate [EGCG], the “effect on cLucAβ activity compared to solvent alone” value in the assay with cLucAβ is on record as “no effect”. The “effect on sLucAβ activity compared to solvent alone” value in the assay with sLucAβ is “significantly increased activity”. Regarding “synthetic Aβ peptide: synthetic Aβ42 peptide (Bachem) used for in vitro aggregation”, in assay [2], the “exponential phase of in vitro aggregation” value lay in the range of 6 to 24 h and the “plateau of in vitro aggregation” value was 24 to 72 h.
